{"source": "patent US5294617A", "about": "“Angiotensin II receptor blocking 2,3,6 substituted quinazolinones” (American Cyanamid Company, priority 1993, dated 1994)", "test_system": "ANGIOTENSIN II (AII) VASOPRESSOR RESPONSE", "assay": "AII Challenge: angiotensin II vasopressor response in conscious spontaneously hypertensive rats", "type": "in vivo, Conscious Male Okamoto-Aoki SHR (rat)", "conditions": "individual rat, SHR", "excerpt": "By administering a compound of this invention to a rat, and then challenging with angiotensin II, a blockage of the vasopressor response is realized.\nConscious Male Okamoto-Aoki SHR, 16-20 weeks old, weighing approximately 330 g are purchased from Charles River Labs (Wilmington, Mass.). Conscious rats are restrained in a supine position with elastic tape. The area at the base of the tail is locally anesthetized by subcutaneous infiltration with 2% procaine. The ventral caudal artery and vein are isolated, and a cannula made of polyethylene (PE) 10-20 tubing (fused together by heat) is passed into the lower abdominal aorta and vena cava, respectively. The cannula is secured, heparinized (1,000 I.U./ml), sealed and the wound is closed. The animals are placed in plastic restraining cages in an upright position. The cannula is attached to a Statham P23Db pressure transducer, and pulsatile blood pressure is recorded to 10-15 minutes with a Gould Brush recorder. (Chan et al., (Drug Development Res., 18:75-94, 1989).\nAngiotensin II (human sequence, Sigma Chem. Co., St. Louis, Mo.) of 0.05 and 0.1 ug/kg i.v. is injected into all rats (predosing response). Then a test compound, vehicle or a known angiotensin II antagonist is administered i.v., i.p. or orally to each set of rats. The two doses of angiotensin II are given to each rat again at 30, 60, 90, 120, 180, 240 and 300 minutes post dosing the compound or vehicle. The vasopressor response of angiotensin II is measured for the increase in systolic blood pressure in mmHg. The percentage of antagonism or blockade of the vasopressor response of angiotensin II by a compound is calculated using the vasopressor response (increase in systolic blood pressure) of angiotensin II of each rat predosing the compound as 100%. A compound is considered active if at 30 mg/kg i.v. it antagonized at least 50% of the response.", "key": {"[1]": {"conditions": "2 mg/kg i.v., AII 0.1 mcg/kg IV, 90 min post dose, 2 mg/kg"}, "[2]": {"conditions": "2 mg/kg i.v., AII 0.1 mcg/kg IV, 120 min post dose, 2 mg/kg"}, "[3]": {"conditions": "2 mg/kg i.v., AII 0.1 mcg/kg IV, 180 min post dose, 2 mg/kg"}, "[4]": {"conditions": "10 mg/kg i.v., AII 0.05 mcg/kg IV, 30 min post dose, 10 mg/kg"}, "[5]": {"conditions": "10 mg/kg i.v., AII 0.05 mcg/kg IV, 60 min post dose, 10 mg/kg"}, "[6]": {"conditions": "10 mg/kg i.v., AII 0.05 mcg/kg IV, 120 min post dose, 10 mg/kg"}, "[7]": {"conditions": "10 mg/kg i.v., AII 0.05 mcg/kg IV, 180 min post dose, 10 mg/kg"}, "[8]": {"conditions": "10 mg/kg i.v., AII 0.05 mcg/kg IV, 240 min post dose, 10 mg/kg"}, "[9]": {"conditions": "10 mg/kg i.v., AII 0.05 mcg/kg IV, 300 min post dose, 10 mg/kg"}, "[10]": {"conditions": "10 mg/kg i.v., AII 0.1 mcg/kg IV, 30 min post dose"}, "[11]": {"conditions": "10 mg/kg i.v., AII 0.1 mcg/kg IV, 60 min post dose, 10 mg/kg"}, "[12]": {"conditions": "10 mg/kg i.v., AII 0.1 mcg/kg IV, 90 min post dose, 10 mg/kg"}, "[13]": {"conditions": "10 mg/kg i.v., AII 0.1 mcg/kg IV, 120 min post dose, 10 mg/kg"}, "[14]": {"conditions": "10 mg/kg i.v., AII 0.1 mcg/kg IV, 180 min post dose, 10 mg/kg"}, "[15]": {"conditions": "10 mg/kg i.v., AII 0.1 mcg/kg IV, 240 min post dose, 10 mg/kg"}, "[16]": {"conditions": "10 mg/kg i.v., AII 0.1 mcg/kg IV, 300 min post dose, 10 mg/kg"}}, "note": "Several values for one entry are separate records, joined by “and”; a condition that tells them apart may be missing. Equal values may be shown once."}
{"smiles": "CCCCc1nc2ccc([C@@H]3C[C@H](CO)ON3C)cc2c(=O)n1Cc1ccc(-c2ccccc2-c2nn[nH]n2)cc1", "note": "(relative stereo) [Example 15, CIS-2-butyl-6-5-(hydroxymethyl)-2-methyl-3-isoxazolidinyl]-3-[[2'-(1H-tetrazol-5[1,1'-biphenyl]-4-yl]methyl]-4(3H)-quinazolinone]", "values": [{"measurement": "Response After AII", "setting": "[1]", "value": "245 mmHg and 240 mmHg"}, {"measurement": "Response Change", "setting": "[1]", "value": "30 mmHg and 20 mmHg"}, {"measurement": "Response After AII", "setting": "[2]", "value": "227 mmHg and 235 mmHg"}, {"measurement": "Response Change", "setting": "[2]", "value": "17 mmHg and 20 mmHg"}, {"measurement": "Response After AII", "setting": "[3]", "value": "220 mmHg and 255 mmHg"}, {"measurement": "Response Change", "setting": "[3]", "value": "10 mmHg and 35 mmHg"}, {"measurement": "Control Before AII", "setting": "2 mg/kg i.v., before AII 0.05 mcg/kg IV, 30 min post dose, 2 mg/kg", "value": "215 mmHg and 225 mmHg"}, {"measurement": "Control Before AII", "setting": "2 mg/kg i.v., before AII 0.05 mcg/kg IV, 60 min post dose", "value": 220, "unit": "mmHg"}, {"measurement": "Control Before AII", "setting": "2 mg/kg i.v., before AII 0.05 mcg/kg IV, 90 min post dose, 2 mg/kg", "value": "210 mmHg and 225 mmHg"}, {"measurement": "Control Before AII", "setting": "2 mg/kg i.v., before AII 0.05 mcg/kg IV, 120 min post dose, 2 mg/kg", "value": "205 mmHg and 215 mmHg"}, {"measurement": "Control Before AII", "setting": "2 mg/kg i.v., before AII 0.05 mcg/kg IV, 180 min post dose, 2 mg/kg", "value": "203 mmHg and 215 mmHg"}, {"measurement": "Control Before AII", "setting": "2 mg/kg i.v., before AII 0.1 mcg/kg IV, 30 min post dose, 2 mg/kg", "value": "220 mmHg and 215 mmHg"}, {"measurement": "Control Before AII", "setting": "2 mg/kg i.v., before AII 0.1 mcg/kg IV, 60 min post dose, 2 mg/kg", "value": "220 mmHg and 217 mmHg"}, {"measurement": "Control Before AII", "setting": "2 mg/kg i.v., before AII 0.1 mcg/kg IV, 90 min post dose, 2 mg/kg", "value": "215 mmHg and 220 mmHg"}, {"measurement": "Control Before AII", "setting": "2 mg/kg i.v., before AII 0.1 mcg/kg IV, 120 min post dose, 2 mg/kg", "value": "210 mmHg and 215 mmHg"}, {"measurement": "Control Before AII", "setting": "2 mg/kg i.v., before AII 0.1 mcg/kg IV, 180 min post dose, 2 mg/kg", "value": "210 mmHg and 220 mmHg"}, {"measurement": "Response After AII", "setting": "[4]", "value": "180 mmHg and 190 mmHg"}, {"measurement": "Response Change", "setting": "[4]", "value": "5 mmHg and 15 mmHg"}, {"measurement": "Response After AII", "setting": "10 mg/kg i.v., AII 0.05 mcg/kg IV, 60 min post dose", "value": 190, "unit": "mmHg"}, {"measurement": "Response After AII", "setting": "[5]", "value": 165, "unit": "mmHg"}, {"measurement": "Response Change", "setting": "[5]", "value": "0 mmHg and 1 mmHg"}, {"measurement": "Response Change", "setting": "10 mg/kg i.v., AII 0.05 mcg/kg IV, 90 min post dose", "value": 5, "unit": "mmHg"}, {"measurement": "Response After AII", "setting": "10 mg/kg i.v., AII 0.05 mcg/kg IV, 90 min post dose, 10 mg/kg", "value": "180 mmHg and 170 mmHg"}, {"measurement": "Response After AII", "setting": "[6]", "value": "195 mmHg and 175 mmHg"}, {"measurement": "Response Change", "setting": "[6]", "value": "15 mmHg and 10 mmHg"}, {"measurement": "Response After AII", "setting": "[7]", "value": "195 mmHg and 165 mmHg"}, {"measurement": "Response Change", "setting": "[7]", "value": "30 mmHg and 10 mmHg"}, {"measurement": "Response After AII", "setting": "10 mg/kg i.v., AII 0.05 mcg/kg IV, 240 min post dose", "value": 160, "unit": "mmHg"}, {"measurement": "Response After AII", "setting": "[8]", "value": 195, "unit": "mmHg"}, {"measurement": "Response Change", "setting": "[8]", "value": "25 mmHg and 5 mmHg"}, {"measurement": "Response After AII", "setting": "10 mg/kg i.v., AII 0.05 mcg/kg IV, 300 min post dose", "value": 170, "unit": "mmHg"}, {"measurement": "Response After AII", "setting": "[9]", "value": 185, "unit": "mmHg"}, {"measurement": "Response Change", "setting": "[9]", "value": "17 mmHg and 10 mmHg"}, {"measurement": "Response After AII", "setting": "[10]", "value": 170, "unit": "mmHg"}, {"measurement": "Response Change", "setting": "[10]", "value": 0, "unit": "mmHg"}, {"measurement": "Response After AII", "setting": "10 mg/kg i.v., AII 0.1 mcg/kg IV, 30 min post dose, 10 mg/kg", "value": 185, "unit": "mmHg"}, {"measurement": "Response After AII", "setting": "[11]", "value": "193 mmHg and 170 mmHg"}, {"measurement": "Response Change", "setting": "[11]", "value": "8 mmHg and 10 mmHg"}, {"measurement": "Response After AII", "setting": "[12]", "value": "195 mmHg and 175 mmHg"}, {"measurement": "Response Change", "setting": "[12]", "value": "10 mmHg and 15 mmHg"}, {"measurement": "Response After AII", "setting": "10 mg/kg i.v., AII 0.1 mcg/kg IV, 120 min post dose", "value": 190, "unit": "mmHg"}, {"measurement": "Response After AII", "setting": "[13]", "value": 175, "unit": "mmHg"}, {"measurement": "Response Change", "setting": "[13]", "value": "15 mmHg and 10 mmHg"}, {"measurement": "Response After AII", "setting": "[14]", "value": "205 mmHg and 165 mmHg"}, {"measurement": "Response Change", "setting": "[14]", "value": "35 mmHg and 8 mmHg"}, {"measurement": "Response After AII", "setting": "[15]", "value": "205 mmHg and 165 mmHg"}, {"measurement": "Response Change", "setting": "[15]", "value": "35 mmHg and 8 mmHg"}, {"measurement": "Response After AII", "setting": "[16]", "value": "190 mmHg and 200 mmHg"}, {"measurement": "Response Change", "setting": "[16]", "value": "25 mmHg and 40 mmHg"}, {"measurement": "Control Before AII", "setting": "10 mg/kg i.v., before AII 0.05 mcg/kg IV, 30 min post dose", "value": 175, "unit": "mmHg"}, {"measurement": "Control Before AII", "setting": "10 mg/kg i.v., before AII 0.05 mcg/kg IV, 60 min post dose, 10 mg/kg", "value": "190 mmHg and 164 mmHg"}, {"measurement": "Control Before AII", "setting": "10 mg/kg i.v., before AII 0.05 mcg/kg IV, 90 min post dose, 10 mg/kg", "value": "175 mmHg and 165 mmHg"}, {"measurement": "Control Before AII", "setting": "10 mg/kg i.v., before AII 0.05 mcg/kg IV, 120 min post dose, 10 mg/kg", "value": "180 mmHg and 165 mmHg"}, {"measurement": "Control Before AII", "setting": "10 mg/kg i.v., before AII 0.05 mcg/kg IV, 180 min post dose, 10 mg/kg", "value": "165 mmHg and 155 mmHg"}, {"measurement": "Control Before AII", "setting": "10 mg/kg i.v., before AII 0.05 mcg/kg IV, 240 min post dose, 10 mg/kg", "value": "170 mmHg and 155 mmHg"}, {"measurement": "Control Before AII", "setting": "10 mg/kg i.v., before AII 0.05 mcg/kg IV, 300 min post dose, 10 mg/kg", "value": "168 mmHg and 160 mmHg"}, {"measurement": "Control Before AII", "setting": "10 mg/kg i.v., before AII 0.1 mcg/kg IV, 30 min post dose, 10 mg/kg", "value": "185 mmHg and 170 mmHg"}, {"measurement": "Control Before AII", "setting": "10 mg/kg i.v., before AII 0.1 mcg/kg IV, 60 min post dose, 10 mg/kg", "value": "185 mmHg and 160 mmHg"}, {"measurement": "Control Before AII", "setting": "10 mg/kg i.v., before AII 0.1 mcg/kg IV, 90 min post dose, 10 mg/kg", "value": "185 mmHg and 160 mmHg"}, {"measurement": "Control Before AII", "setting": "10 mg/kg i.v., before AII 0.1 mcg/kg IV, 120 min post dose, 10 mg/kg", "value": "175 mmHg and 165 mmHg"}, {"measurement": "Control Before AII", "setting": "10 mg/kg i.v., before AII 0.1 mcg/kg IV, 180 min post dose, 10 mg/kg", "value": "170 mmHg and 157 mmHg"}, {"measurement": "Control Before AII", "setting": "10 mg/kg i.v., before AII 0.1 mcg/kg IV, 240 min post dose, 10 mg/kg", "value": "170 mmHg and 157 mmHg"}, {"measurement": "Control Before AII", "setting": "10 mg/kg i.v., before AII 0.1 mcg/kg IV, 300 min post dose, 10 mg/kg", "value": "165 mmHg and 160 mmHg"}]}
